# Measurements from patent US20250281393A1, “BODY CAVITY GEL” (CS MEDICA A/S, priority 2021, published 2025).
# Read-outs that look alike come from different tables or passages of the source.
# System: pathogens, such as virus, e.g. cold and/or flu
# Details: in vivo
structure (smiles),measurement,setting,value
"C=C(C)[C@@H]1CCC(C)=C[C@H]1c1c(O)cc(CCCCC)cc1O [type A CBD, Cannabidiol]","Activity (potency) in protection against pathogens, compared with type B CBD",,significantly more active
same,"Activity (potency) in protection against pathogens, compared with type B CBD",listed as crystal structure A,significantly more potent
